Experimental data published in patent US7365084B2, “Cycloalkyl-substituted amino acid derivatives, processes for their preparation and their use as pharmaceuticals” (SanoFi-Aventis Deutschland GmbH, priority 2003, dated 2008).

Molecular target: T1, human PPARalpha receptor (GR-GAL4-humanPPARalpha-LBD fusion protein) (Homo sapiens, UniProt Q07869)
T1 construct: amino acids S167-Y468; expressed in transfected cells; host or cells: HEK (human embryo kidney) cells, stably transfected with pcDNA3 carrying the fusion construct
T1 sequence (Q07869 167-468): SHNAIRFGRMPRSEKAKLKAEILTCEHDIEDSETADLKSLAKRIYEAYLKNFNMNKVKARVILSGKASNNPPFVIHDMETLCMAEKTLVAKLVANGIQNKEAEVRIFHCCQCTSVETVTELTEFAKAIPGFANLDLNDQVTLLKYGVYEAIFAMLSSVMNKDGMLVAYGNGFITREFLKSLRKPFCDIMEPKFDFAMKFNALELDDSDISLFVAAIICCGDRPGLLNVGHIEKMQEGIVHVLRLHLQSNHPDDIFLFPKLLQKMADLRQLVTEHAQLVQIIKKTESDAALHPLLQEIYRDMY
Assay: Cellular PPARalpha assay (stably transfected HEK luciferase reporter cell line)
Assay type: cell-based
Conditions: 24 h incubation
Experimental: (A) Determination of EC50 Values of PPAR Agonists in the Cellular PPARalpha Assay
The potency of substances which bind to human PPAR[…] and activate in an agonistic manner is analyzed using a stably transfected HEK cell line (HEK=human embryo kidney) which is referred to here as PPARalpha reporter cell line. It contains two genetic elements, a luciferase reporter element (pΔM-GAL4-Luc-Zeo) and a PPARalpha fusion protein (GR-GAL4-humanPPARα-LBD) which mediates expression of the luciferase reporter element depending on a PPARalpha ligand. The stably and constitutively expressed fusion protein GR-GAL4-humanPPARalpha-LBD binds in the cell nucleus of the PPARalpha reporter cell line via the GAL4 protein portion to the GAL4 DNA binding motifs 5′-upstream of the luciferase reporter element which is integrated in the genome of the cell line. There is only little expression of the luciferase reporter gene without addition of a PPARalpha ligand if fatty acid-depleted fetal calf serum (cs-FCS) is used in the assay. PPARα ligands bind and activate the PPARα fusion protein and thereby bring about expression of the luciferase reporter gene. The luciferase which is formed can be detected by means of chemi-luminescence via an appropriate substrate.
The PPARalpha reporter cell line was prepared in 2 stages. Firstly, the luciferase reporter element was constructed and stably transfected into HEK cells. For this purpose, five binding sites of the yeast transcription factor GAL4 (each 5′-CGGAGTACTGTCCTCCGAG-3′) (SEQ ID NO:1) were cloned in 5′-upstream of a 68 bp-long minimal MMTV promoter (Genbank Accession # V01175). The minimal MMTV promoter section contains a CCAAT box and a TATA element in order to enable efficient transcription by RNA polymerase II. The cloning and sequencing of the GAL4-MMTV construct took place in analogy to the description of Sambrook J. et. al. (Molecular cloning, Cold Spring Harbor Laboratory Press, 1989). Then the complete Photinus pyralis gene (Genbank Accession # M15077) was cloned in 3′-downstream of the GAL4-MMTV element. After sequencing, the luceriferase reporter element consisting of five GAL4 binding sites, MMTV promoter and luciferase gene was recloned into a plasmid which confers zeocin resistance in order to obtain the plasmid pΔM-GAL4-Luc-Zeo. This vector was transfected into HEK cells in accordance with the statements in Ausubel, F. M. et al. (Current protocols in molecular biology, Vol. 1-3, John Wiley & Sons, Inc., 1995). […] In a second step, the PPARalpha fusion protein (GR-GAL4-humanPPARalpha-LBD) was introduced into the stable cell clone described. For this purpose, initially the cDNA coding for the N-terminal 76 amino acids of the glucocorticoid receptor (Genbank Accession # P04150) was linked to the cDNA section coding for amino acids 1-147 of the yeast transcription factor GAL4 (Genbank Accession # P04386). The cDNA of the ligand-binding domain of the human PPARalpha receptor (amino acids S167-Y468; Genbank Accession # S74349) was cloned in at the 3′-end of this GR-GAL4 construct. The fusion construct prepared in this way (GR-GAL4-humanPPARalpha-LBD) was recloned into the plasmid pcDNA3 (from Invitrogen) in order to enable constitutive expression therein by the cytomegalovirus promoter. This plasmid was linearized with a restriction endonuclease and stably transfected into the previously described cell clone containing the luciferase reporter element. The finished PPARalpha reporter cell line which contains a luciferase reporter element and constitutively expresses the PPARalpha fusion protein (GR-GAL4-human PPARalpha-LBD) was isolated by selection with zeocin (0.5 mg/ml) and G418 (0.5 mg/ml).
The activity of PPARalpha agonists is determined in a 3-day assay which is described below: […]

| SMILES | EC50 |
| --- | --- |
| CCc1oc(-c2ccc(C)cc2)nc1CO[C@H]1CCC[C@@H](C(=O)N[C@H](C(=O)O)C(C)C)C1 [Example 21a, (S)-3-methyl-2-{[(1R,3S)-3-(5-ethyl-2-p-tolyloxazol-4-ylmethoxy)cyclohexanecarbonyl]amino}butyric acid] | 5 nM |
| Cc1oc(-c2cccc(C(F)(F)F)c2)nc1COCC1CCCC(C(=O)N[C@H](C(=O)O)C(C)C)C1 (some centres unmarked) [Example 44] | 4.5 nM |
| Cc1ccc(-c2nc(COC3CCCC(C(=O)N[C@@H](C)C(=O)O)C3)c(C)o2)cc1 (stereo partly drawn) [Example 3, (S)-2-{[(1R,3S)/(1S,3R)-3-(5-Methyl-2-p-tolyloxazol-4-ylmethoxy)cyclohexanecarbonyl]amino}propionic acid] | 99 nM |
| CCc1oc(-c2ccc(C(F)(F)F)cc2)nc1COCC1CCCC(C(=O)N[C@H](C(=O)O)C(C)C)C1 (some centres unmarked) [Example 50] | 1.2 nM |
| Cc1ccc(-c2nc(COC3CCCC(C(=O)NC(C)(C)C(=O)O)C3)c(C)o2)cc1 (racemic) [Example 5, 2-Methyl-2-{[(1R,3S)/(1S, 3R)-3-(5-methyl-2-p-tolyloxazol-4-ylmethoxy)-cyclohexanecarbonyl]amino}propionic acid] | 29 nM |
| CC(C)c1oc(-c2ccc(C(F)(F)F)cc2)nc1COCC1CCCC(C(=O)N[C@H](C(=O)O)C(C)C)C1 (some centres unmarked) [Example 43] | 32 nM |
| Cc1ccc(-c2nc(COC3CCCC(C(=O)NC4(C(=O)O)CCCC4)C3)c(C)o2)cc1 (racemic) [Example 25, 1-{[(1R,3S)/(1S,3R)-3-(5-Methyl-2-p-tolyloxazol-4-ylmethoxy)cyclohexanecarbonyl]amino}cyclopentanecarboxylic acid] | 7.2 nM |
| Cc1oc(-c2cccc(C(F)(F)F)c2)nc1COC1CCCC(C(=O)N[C@H](C(=O)O)C(C)C)C1 (stereo partly drawn) [Example 11, (S)-3-Methyl-2-({(1R,3S)/(1S,3R)-3-[5-methyl-2-(3-trifluoromethylphenyl)-oxazol-4-ylmethoxy]cyclohexanecarbonyl}amino)butyric acid] | 15 nM |
